Data on eight compounds can be found in US11771738B2 (Zoetis Services LLC, priority 2018, dated 2023).

Like-named read-outs stand apart in the source and are kept apart here.

Holding throughout (type): cell-based
Assay [1] deals with microfilariae of Dirofilaria immitis. Nature of the assay: Dirofilaria immitis, Microfilaria (DiMf) In Vitro Assay. The settings on record: Dirofilaria immitis, 72 h, read-out: DiMf MED, Minimum Effective Dose, D. immitis microfilariae motility, in vitro.
A further assay has as its system D. immitis L4 larvae. In words: Dirofilaria immitis, L4 Stage (DiL4) In Vitro Assay. The settings on record: for minimal effective concentration: Dirofilaria immitis, 72 h, read-out: DiL4 MED, Minimum Effective Dose, D. immitis L4 larvae motility, in vitro; for DiMf/DiL4: larval stage selectivity, ratio of DiMf MED to DiL4 MED.
Assay [2] has as its system third stage larvae of Haemonchus contortus. In words: Haemonchus contortus, Larvae Stage 3 (HcL3) In Vitro Assay. The settings on record: Haemonchus contortus, 96 h.
[3] abbreviates: read-out: HcL3 MED, Haemonchus contortus third stage larvae in vitro, class mark appended to the Ex # in Table 3.
The mark [4] stands for this setting: read-out: HcL3 MED, Minimum Effective Dose, H. contortus third stage larvae, approximately 96 hours.
[5] abbreviates: read-out: HcL3 MED, approximately 96 hours incubation, multiple-resistant field isolate.

Take `Cc1ncsc1Cc1ccc(C[C@H]2OC(=O)[C@H](CC(C)C)N(C)C(=O)[C@@H](C)OC(=O)[C@H](CC(C)C)N(C)C(=O)[C@@H](Cc3ccc(Cc4scnc4C)cc3)OC(=O)[C@H](CC(C)C)N(C)C(=O)[C@@H](C)OC(=O)[C@H](CC(C)C)N(C)C2=O)cc1` [Example 3-155, (3S,6R,9S,12R,15S,18R,21S,24R)-3,9,15,21-tetraisobutyl-4,6,10,16,18,22-hexamethyl-12,24-bis(4-((4-methylthiazol-5-yl)methyl)benzyl)-1,7,13,19-tetraoxa-4,10,16,22-tetraazacyclotetracosan-2,5,8,11,14,17,20,23-octaone]: the minimal effective concentration in assay [1] is 0.0001 µM; in the assay with D. immitis L4 larvae, 2e-05 µM; in assay [2] (setting [3]), less than 1 µM; in assay [2] (setting [4]), 0.5 µM; in assay [2] (setting [5]), no more than 1 µM. Also, the DiMf/DiL4 in the assay with D. immitis L4 larvae was found to be 5.
Regarding `CC(C)C[C@H]1C(=O)O[C@H](Cc2ccc(Cc3ccns3)cc2)C(=O)N(C)[C@@H](CC(C)C)C(=O)O[C@H](C)C(=O)N(C)[C@@H](CC(C)C)C(=O)O[C@H](Cc2ccc(Cc3ccns3)cc2)C(=O)N(C)[C@@H](CC(C)C)C(=O)O[C@H](C)C(=O)N1C` [Example 3-156, (3S,6R,9S,12R,15S,18R,21S,24R)-3,9,15,21-tetraisobutyl-6,18-bis(4-(isothiazol-5-ylmethyl)benzyl)-4,10,12,16,22,24-hexamethyl-1,7,13,19-tetraoxa-4,10,16,22-tetraazacyclotetracosan-2,5,8,11,14,17,20,23-octaone], the minimal effective concentration was found to be 0.0005 µM in assay [1], 0.0001 µM with D. immitis L4 larvae and 5.6 µM in assay [2] (setting [4]). In the assay on D. immitis L4 larvae, the DiMf/DiL4 is 5.
The corresponding values for `Cc1ccc(Cc2ccc(C[C@H]3OC(=O)[C@H](CC(C)C)N(C)C(=O)[C@@H](C)OC(=O)[C@H](CC(C)C)N(C)C(=O)[C@@H](Cc4ccc(Cc5ccc(C)o5)cc4)OC(=O)[C@H](CC(C)C)N(C)C(=O)[C@@H](C)OC(=O)[C@H](CC(C)C)N(C)C3=O)cc2)o1` [Example 3-157, (3S,6R,9S,12R,15S,18R,21S,24R)-3,9,15,21-tetraisobutyl-4,6,10,16,18,22-hexamethyl-12,24-bis(4-((5-methylfuran-2-yl)methyl)benzyl)-1,7,13,19-tetraoxa-4,10,16,22-tetraazacyclotetracosan-2,5,8,11,14,17,20,23-octaone] are 0.1 µM, 0.001 µM, greater than 100 µM and 100.
For `CCOc1ncccc1Cc1ccc(C[C@H]2OC(=O)[C@H](CC(C)C)N(C)C(=O)[C@@H](C)OC(=O)[C@H](CC(C)C)N(C)C(=O)[C@@H](Cc3ccc(Cc4cccnc4OCC)cc3)OC(=O)[C@H](CC(C)C)N(C)C(=O)[C@@H](C)OC(=O)[C@H](CC(C)C)N(C)C2=O)cc1` [Example 3-165, (3S,6R,9S,12R,15S,18R,21S,24R)-6,18-bis(4-((2-ethoxypyridin-3-yl)methyl)benzyl)-3,9,15,21-tetraisobutyl-4,10,12,16,22,24-hexamethyl-1,7,13,19-tetraoxa-4,10,16,22-tetraazacyclotetracosan-2,5,8,11,14,17,20,23-octaone], in that order: 0.2 µM, 0.001 µM, greater than 100 µM and 200.
As to `CC(C)C[C@H]1C(=O)O[C@H](Cc2ccc(Cc3ccoc3)cc2)C(=O)N(C)[C@@H](CC(C)C)C(=O)O[C@H](C)C(=O)N(C)[C@@H](CC(C)C)C(=O)O[C@H](Cc2ccc(Cc3ccoc3)cc2)C(=O)N(C)[C@@H](CC(C)C)C(=O)O[C@H](C)C(=O)N1C` [Example 3-173, (3S,6R,9S,12R,15S,18R,21S,24R)-6,18-bis(4-(furan-3-ylmethyl)benzyl)-3,9,15,21-tetraisobutyl-4,10,12,16,22,24-hexamethyl-1,7,13,19-tetraoxa-4,10,16,22-tetraazacyclotetracosan-2,5,8,11,14,17,20,23-octaone], the minimal effective concentration was 0.003 µM in assay [1], less than 0.0001 µM in the assay on D. immitis L4 larvae, 1 to 3.3 µM in assay [2] (setting [3]) and 3.3 µM in assay [2] (setting [4]). The DiMf/DiL4 with D. immitis L4 larvae is greater than 30.
The corresponding values for `CC(C)C[C@H]1C(=O)O[C@H](Cc2ccc(Cc3cccnc3N(C)C)cc2)C(=O)N(C)[C@@H](CC(C)C)C(=O)O[C@H](C)C(=O)N(C)[C@@H](CC(C)C)C(=O)O[C@H](Cc2ccc(Cc3cccnc3N(C)C)cc2)C(=O)N(C)[C@@H](CC(C)C)C(=O)O[C@H](C)C(=O)N1C` [Example 3-176, (3S,6R,9S,12R,15S,18R,21S,24R)-6,18-bis(4-((2-(dimethylamino)pyridin-3-yl)methyl)benzyl)-3,9,15,21-tetraisobutyl-4,10,12,16,22,24-hexamethyl-1,7,13,19-tetraoxa-4,10,16,22-tetraazacyclotetracosan-2,5,8,11,14,17,20,23-octaone] are 0.004 µM, 0.0003 µM, 1 to 3.3 µM, 1.2 µM and 13.3.
For `CC(C)C[C@H]1C(=O)O[C@H](Cc2ccc(Cc3cnc(N4CCOCC4)nc3)cc2)C(=O)N(C)[C@@H](CC(C)C)C(=O)O[C@H](C)C(=O)N(C)[C@@H](CC(C)C)C(=O)O[C@H](Cc2ccc(Cc3cnc(N4CCOCC4)nc3)cc2)C(=O)N(C)[C@@H](CC(C)C)C(=O)O[C@H](C)C(=O)N1C` [Example 3-178, (3S,6R,9S,12R,15S,18R,21S,24R)-3,9,15,21-tetraisobutyl-4,6,10,16,18,22-hexamethyl-12,24-bis(4-((2-morpholinopyrimidin-5-yl)methyl)benzyl)-1,7,13,19-tetraoxa-4,10,16,22-tetraazacyclotetracosan-2,5,8,11,14,17,20,23-octaone], the minimal effective concentration in assay [1] is 0.001 µM; in the assay on D. immitis L4 larvae it was 0.001 µM; in assay [2] (setting [4]) it was greater than 100 µM. The DiMf/DiL4 in the assay with D. immitis L4 larvae stood at 1.
Consider `COc1nccnc1Cc1ccc(C[C@H]2OC(=O)[C@H](CC(C)C)N(C)C(=O)[C@@H](C)OC(=O)[C@H](CC(C)C)N(C)C(=O)[C@@H](Cc3ccc(Cc4nccnc4OC)cc3)OC(=O)[C@H](CC(C)C)N(C)C(=O)[C@@H](C)OC(=O)[C@H](CC(C)C)N(C)C2=O)cc1` [Example 3-193, (3S,6R,9S,12R,15S,18R,21S,24R)-3,9,15,21-tetraisobutyl-6,18-bis(4-((3-methoxypyrazin-2-yl)methyl)benzyl)-4,10,12,16,22,24-hexamethyl-1,7,13,19-tetraoxa-4,10,16,22-tetraazacyclotetracosan-2,5,8,11,14,17,20,23-octaone], for which the minimal effective concentration in assay [1] is 0.002 µM; in the assay on D. immitis L4 larvae, 0.0004 µM; in assay [2] (setting [3]), less than 1 µM; in assay [2] (setting [4]) it was 1 µM; in assay [2] (setting [5]), no more than 1 µM. Further, in the assay on D. immitis L4 larvae, the DiMf/DiL4 was determined as 5.
